Experiments:
[1] = system: Cucumber (variety: SAGAMI HANPAKU); assay: Phytotoxicity studied in Test Example 2; format: in vivo; conditions: 500 ppm, foliage spray
Method: Cucumber (variety: SAGAMI HANPAKU) was cultivated in a plastic pot of 4 cm diameter. A diluted solution of an active compound of the prescribed concentration, prepared in a similar manner as in the above-mentioned Test Example 1, was sprayed to seedlings reached to cotyledon in an amount of 6 ml per 3 pots. One day after the spraying, a suspension of spores, prepared by washing spores of Sphaerotheca fuliginea taken from previously infected cucumber into distilled water, was inoculated to the plant to be treated by spraying (once) and infected in a green house. Seven days after the inoculation, the contraction rate per pot was classified and evaluated to obtain the controlling value (%). Phytotoxicity was also studied at the same time. This test is an average of the results of 1 section 3 pots.

[2] = system: nursery stock (variety: OREGON SUPER DELICIOUS) leaves; assay: Phytotoxicity studied in Test Example 4; format: in vivo; conditions: 500 ppm, spray on detached leaves of nursery stock
Method: A nursery stock (variety: OREGON SUPER DELICIOUS) was cultivated in a plastic pot of 30 cm diameter and its leaves, which had reached at perfect extension stage, were detached from the petiole, were cultivated under hydroponic condition by using a water-holding carrier. After that, a diluted solution of an active compound of the prescribed concentration, prepared in a similar manner as in the above-mentioned Test Example 1, was sprayed to the leaves in an amount of 6 ml per 3 leaves. One day after the spraying, a suspension of spores of artificially cultured Alternaria mali was inoculated to the leaves by spraying (once) and infected by transferring them into a moisturizing box and keeping at 20° C. Four days after the inoculation, the contraction rate per pot was classified and evaluated according to the following standard and the controlling value (%) was obtained. Phytotoxicity was also studied at the same time. This test is an average of the results of 1 section 3 leaves.

[3] = system: Paddy rice (variety: KOSHIHIKARI); conditions: in vivo
[4] = system: Tomato (variety: REGINA); conditions: in vivo

Question: Which Phytotoxicity [1] does the source give for `CC1CCCN1c1ncnc(Cl)c1Cc1cccc(F)c1` (stereo not shown) [Compound 1-14] here?
Answer: No phytotoxicity was observed

Question: What about the Phytotoxicity [2] of the same molecule?
Answer: No phytotoxicity was observed

Question: And the Phytotoxicity [3]?
Answer: No phytotoxicity was observed

Question: Which results are given for `Clc1ccccc1Cc1c(Cl)ncnc1N1CCCC1` [Compound 1-46]?
Answer: Phytotoxicity [1]: No phytotoxicity was observed; Phytotoxicity [2]: No phytotoxicity was observed

Question: For `Fc1ccc(Cc2c(Cl)ncnc2N2CCCC2)cc1` [Compound 1-68], which Phytotoxicity [1] is on record?
Answer: No phytotoxicity was observed

Question: What about the Phytotoxicity [3] of the same molecule?
Answer: No phytotoxicity was observed

Question: Which Phytotoxicity [2] does the source give for `Clc1nc(-c2ccncc2)nc(N2CCCC2)c1Cc1ccccc1` [Compound 1-304] here?
Answer: No phytotoxicity was observed

Question: For `OC[C@H]1CCCN1c1ncnc(Cl)c1Cc1ccccc1` [Compound 1-22], which Phytotoxicity [3] is on record?
Answer: No phytotoxicity was observed

Question: Which Phytotoxicity [2] does the source give for `CC1C=CC(C)N1c1ncnc(Cl)c1Cc1ccccc1` (stereo not shown) [Compound 1-36] here?
Answer: No phytotoxicity was observed

Question: And the Phytotoxicity [3]?
Answer: No phytotoxicity was observed

Question: With `CSc1nc(Cl)c(Cc2ccccc2)c(N2CCCC2)n1` [Compound 1-165, 5-benzyl-4-chloro-2-methylthio-6-pyrrolidin-1-yl-pyrimidine] as the molecule, how does the melting point read?
Answer: 97 to 99 °C

Question: What about the Phytotoxicity [4] of the same molecule?
Answer: No phytotoxicity was observed

Question: For `Clc1cccc(Cc2c(Cl)ncnc2N2CCSC2)c1` [Compound 1-41], which Phytotoxicity [2] is on record?
Answer: No phytotoxicity was observed

Question: For `Clc1ncnc(N2CCCC2)c1Cc1ccccc1` [Compound 1-5, 5-benzyl-4-chloro-6-pyrrolidin-1-yl-pyrimidine], which Phytotoxicity [1] is on record?
Answer: No phytotoxicity was observed

Question: What about the Phytotoxicity [2] of the same molecule?
Answer: No phytotoxicity was observed

Question: What about the Phytotoxicity [3] of the same molecule?
Answer: No phytotoxicity was observed

Question: And the Phytotoxicity [4]?
Answer: No phytotoxicity was observed

Question: With `Clc1ncnc(N2CCC=N2)c1Cc1ccccc1` [Compound 1-42] as the molecule, how does the Phytotoxicity [2] read?
Answer: No phytotoxicity was observed

Question: With `Clc1ncnc(N2CCSC2)c1Cc1ccccc1` [Compound 1-37] as the molecule, how does the Phytotoxicity [3] read?
Answer: No phytotoxicity was observed

Question: What does the source list for `Fc1cc(F)cc(Cc2c(Cl)ncnc2N2CCCC2)c1` [Compound 1-87]?
Answer: Phytotoxicity [1]: No phytotoxicity was observed; Phytotoxicity [3]: No phytotoxicity was observed

Question: With `Clc1cccc(Cc2c(Cl)ncnc2N2CCCC2)c1` [Compound 1-57] as the molecule, how does the Phytotoxicity [1] read?
Answer: No phytotoxicity was observed

Question: What about the Phytotoxicity [3] of the same molecule?
Answer: No phytotoxicity was observed

Question: With `CC(c1ccccc1)c1c(Cl)ncnc1N1CCCC1` (racemic) [Compound 1-6] as the molecule, how does the Phytotoxicity [1] read?
Answer: No phytotoxicity was observed

Question: For `CC1CCCN1c1ncnc(Cl)c1Cc1ccc(F)c(F)c1` (stereo not shown) [Compound 1-16], which Phytotoxicity [1] is on record?
Answer: No phytotoxicity was observed

Question: What about the Phytotoxicity [3] of the same molecule?
Answer: No phytotoxicity was observed

Question: For `CC1CCCN1c1ncnc(Cl)c1Cc1ccccc1` (stereo not shown) [Compound 1-11], which Phytotoxicity [1] is on record?
Answer: No phytotoxicity was observed

Question: And the Phytotoxicity [3]?
Answer: No phytotoxicity was observed

Question: With `Fc1ccc(Cc2c(Cl)ncnc2N2CCCC2)cc1F` [Compound 1-86] as the molecule, how does the Phytotoxicity [1] read?
Answer: No phytotoxicity was observed

Question: What about the Phytotoxicity [3] of the same molecule?
Answer: No phytotoxicity was observed

Question: Which Phytotoxicity [2] does the source give for `Clc1ncnc(N2CC=CC2)c1Cc1ccccc1` [Compound 1-33] here?
Answer: No phytotoxicity was observed

Question: What about the Phytotoxicity [3] of the same molecule?
Answer: No phytotoxicity was observed

Question: Which Phytotoxicity [2] does the source give for `Clc1nc(-n2cncn2)nc(N2CCCC2)c1Cc1ccccc1` [Compound 1-435] here?
Answer: No phytotoxicity was observed

Question: What does the source list for `CC1CCCN1c1ncnc(Cl)c1Cc1cccc(Cl)c1` (stereo not shown) [Compound 1-15]?
Answer: Phytotoxicity [1]: No phytotoxicity was observed; Phytotoxicity [3]: No phytotoxicity was observed

Question: Which Phytotoxicity [1] does the source give for `Fc1cccc(Cc2c(Cl)ncnc2N2CCCC2)c1` [Compound 1-56, 4-Chloro-5-(3-fluorobenzyl)-6-pyrrolidin-1-yl-pyrimidine] here?
Answer: No phytotoxicity was observed

Question: What about the Phytotoxicity [2] of the same molecule?
Answer: No phytotoxicity was observed

Question: And the Phytotoxicity [3]?
Answer: No phytotoxicity was observed

Question: For `Fc1ccccc1Cc1c(Cl)ncnc1N1CCCC1` [Compound 1-45], which Phytotoxicity [3] is on record?
Answer: No phytotoxicity was observed

Question: For `CS(=O)(=O)c1nc(Cl)c(Cc2ccccc2)c(N2CCCC2)n1`, which melting point is on record?
Answer: 136 to 138 °C

Question: For `Clc1nc(-c2ccccn2)nc(N2CCCC2)c1Cc1ccccc1` [Compound 1-238], which Phytotoxicity [3] is on record?
Answer: No phytotoxicity was observed

Question: And the Phytotoxicity [4]?
Answer: No phytotoxicity was observed

Question: Which melting point does the source give for `COc1ncnc(N2CCCC2)c1Cc1cccc(F)c1` here?
Answer: 74 to 76 °C

Question: For `Fc1cccc(Cc2cncnc2N2CCCC2)c1` [Compound 1-102, 5-(3-fluorobenzyl)-4-pyrrolidin-1-yl-pyrimidine], which Phytotoxicity [2] is on record?
Answer: No phytotoxicity was observed

Question: And the melting point?
Answer: 51 to 54 °C

Question: And the Phytotoxicity [3]?
Answer: No phytotoxicity was observed

Question: Which Phytotoxicity [2] does the source give for `Cc1cc(C)n(-c2nc(C)nc(Cl)c2Cc2ccccc2)n1` [Compound 1-523] here?
Answer: No phytotoxicity was observed

Question: For `CC(C)(C)c1nc(Cl)c(Cc2ccccc2)c(N2CCCC2)n1` [Compound 1-121], which Phytotoxicity [2] is on record?
Answer: No phytotoxicity was observed

Question: For `CC1CCCN1c1ncnc(Cl)c1Cc1cc(F)cc(F)c1` (stereo not shown) [Compound 1-17], which Phytotoxicity [1] is on record?
Answer: No phytotoxicity was observed

Question: What about the Phytotoxicity [3] of the same molecule?
Answer: No phytotoxicity was observed

Question: For `Clc1nc(-c2cnccn2)nc(N2CCCC2)c1Cc1ccccc1` [Compound 1-311], which Phytotoxicity [2] is on record?
Answer: No phytotoxicity was observed

— patent publication US20070167421A1, “Pyrimidine derivatives and use thereof as agricultural and horticultural fungicides” (priority 2004, published 2007)
